Results published in patent publication US20250059198A1, “BRM DEGRADING COMPOUNDS AND ASSOCIATED METHODS OF USE” (Arvinas Operations, Inc., priority 2021, published 2025).

Molecular target: T1, BRM (Homo sapiens, UniProt P51531)
T1 construct: Western Blot Screen of BRM Degradation in SW1573 Cells; endogenous in cells; host or cells: SW1573 cells
Assay: BRM degradation (Dmax and DC50) in SW1573 cells, Western blot screen / In-Cell Western screen
Type: cell-based
Conditions: overnight (18-20 hours) treatment; for Dmax: read-out: Dmax (%)** (% degraded)
Summary of the method: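 Dmax and DC50 were derived from BRM levels normalised to an alpha-tubulin control, measured by chemiluminescent Western blotting of lysates or by PFA-fixed In-Cell Western on LI-COR Odyssey. SW1573 cells received compound overnight (18–20 h, 0.1% DMSO final).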

T1 sequence (P51531 whole entry): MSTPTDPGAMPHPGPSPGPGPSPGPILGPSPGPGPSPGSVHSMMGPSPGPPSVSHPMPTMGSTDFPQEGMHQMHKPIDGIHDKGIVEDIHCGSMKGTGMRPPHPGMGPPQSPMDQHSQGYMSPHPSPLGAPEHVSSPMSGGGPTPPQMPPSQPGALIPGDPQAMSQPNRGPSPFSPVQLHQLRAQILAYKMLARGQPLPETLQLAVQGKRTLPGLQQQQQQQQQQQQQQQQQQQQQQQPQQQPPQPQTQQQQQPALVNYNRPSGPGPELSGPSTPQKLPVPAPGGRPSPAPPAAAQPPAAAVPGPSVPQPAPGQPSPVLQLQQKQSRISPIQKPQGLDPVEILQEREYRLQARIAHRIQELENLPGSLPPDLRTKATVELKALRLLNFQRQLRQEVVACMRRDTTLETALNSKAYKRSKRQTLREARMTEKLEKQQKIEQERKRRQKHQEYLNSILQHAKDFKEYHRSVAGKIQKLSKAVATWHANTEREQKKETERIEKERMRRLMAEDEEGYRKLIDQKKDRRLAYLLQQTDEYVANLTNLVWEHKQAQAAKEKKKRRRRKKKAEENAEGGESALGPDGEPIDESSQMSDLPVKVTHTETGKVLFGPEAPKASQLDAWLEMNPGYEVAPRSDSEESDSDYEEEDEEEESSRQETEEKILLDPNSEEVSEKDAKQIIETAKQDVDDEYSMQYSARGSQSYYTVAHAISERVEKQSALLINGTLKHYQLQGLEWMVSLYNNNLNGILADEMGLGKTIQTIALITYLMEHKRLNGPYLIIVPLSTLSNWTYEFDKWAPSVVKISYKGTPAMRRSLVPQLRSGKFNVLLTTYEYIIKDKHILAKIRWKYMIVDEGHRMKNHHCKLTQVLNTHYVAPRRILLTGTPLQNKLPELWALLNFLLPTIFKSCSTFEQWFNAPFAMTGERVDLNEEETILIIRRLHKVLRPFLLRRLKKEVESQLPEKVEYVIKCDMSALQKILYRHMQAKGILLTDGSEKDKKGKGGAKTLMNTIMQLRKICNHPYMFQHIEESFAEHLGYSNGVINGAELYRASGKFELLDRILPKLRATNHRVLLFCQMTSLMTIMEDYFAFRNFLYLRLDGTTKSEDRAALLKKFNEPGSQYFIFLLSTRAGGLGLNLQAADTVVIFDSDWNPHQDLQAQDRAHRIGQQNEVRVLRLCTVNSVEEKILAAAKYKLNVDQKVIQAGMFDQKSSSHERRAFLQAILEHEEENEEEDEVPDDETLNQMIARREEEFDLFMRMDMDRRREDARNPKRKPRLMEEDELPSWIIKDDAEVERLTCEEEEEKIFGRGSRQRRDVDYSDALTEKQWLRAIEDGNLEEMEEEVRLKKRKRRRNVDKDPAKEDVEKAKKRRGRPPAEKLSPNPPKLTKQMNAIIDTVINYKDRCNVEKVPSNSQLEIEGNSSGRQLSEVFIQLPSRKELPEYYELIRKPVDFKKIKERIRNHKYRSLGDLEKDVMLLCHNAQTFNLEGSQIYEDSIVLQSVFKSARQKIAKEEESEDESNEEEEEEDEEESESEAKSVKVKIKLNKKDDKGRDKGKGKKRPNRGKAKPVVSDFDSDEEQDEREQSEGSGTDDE

Row | SMILES | DC50 | Dmax
1 | Cc1ncsc1-c1ccc([C@H](C)NC(=O)[C@@H]2C[C@@H](O)CN2C(=O)[C@@H](c2cc(N3CCC(CN4CCC(O[C@H]5C[C@H](N6CCC(O)(CN7C8CCC7CN(c7cc(-c9ccccc9O)nnc7N)C8)CC6)C5)CC4)CC3)no2)C(C)C)cc1 [Compound 11, (2S,4R)-4-hydroxy-N-[(1S)-1-[4-(4-methyl-1,3-thiazol-5-yl)phenyl]ethyl]-1-[(2R)-3-methyl-2-{3-[4-({4-[(1r,3r)-3-[4-({3-[3-amino-6-(2-hydroxyphenyl)pyridazin-4-yl]-3,8-diazabicyclo[3.2.1]octan-8-yl}methyl)-4-hydroxypiperidin-1-yl]cyclobutoxy]piperidin-1-yl}methyl)piperidin-1-yl]-1,2-oxazol-5-yl}butanoyl]pyrrolidine-2-carboxamide] | < 2.5 nM | > 75%
2 | Cc1ncsc1-c1ccc([C@H](C)NC(=O)[C@@H]2C[C@@H](O)CN2C(=O)[C@@H](c2cc(N3CCC(CN4CC[C@@H](OC(=O)N5CCN(c6cc(-c7ccccc7O)nnc6N)CC5)[C@@H](F)C4)CC3)no2)C(C)C)cc1 [Compound 101, (3S,4R)-3-fluoro-1-[(1-{5-[(2R)-1-[(2S,4R)-4-hydroxy-2-{[(1S)-1-[4-(4-methyl-1,3-thiazol-5-yl)phenyl]ethyl]carbamoyl}pyrrolidin-1-yl]-3-methyl-1-oxobutan-2-yl]-1,2-oxazol-3-yl}piperidin-4-yl)methyl]piperidin-4-yl 4-[3-amino-6-(2-hydroxyphenyl)pyridazin-4-yl]piperazine-1-carboxylate] | < 2.5 nM | > 75%
3 | Cc1ncsc1-c1ccc([C@H](C)NC(=O)[C@@H]2C[C@@H](O)CN2C(=O)[C@@H](c2cc(N3CCC(CN4CCC5(CC4)CC(N4CCO[C@@H](CN6C7CCC6CN(c6cc(-c8ccccc8O)nnc6N)C7)C4)C5)CC3)no2)C(C)C)cc1 [Compound 119, (2S,4R)-1-[(2R)-2-{3-[4-({2-[(2R)-2-({3-[3-amino-6-(2-hydroxyphenyl)pyridazin-4-yl]-3,8-diazabicyclo[3.2.1]octan-8-yl}methyl)morpholin-4-yl]-7-azaspiro[3.5]nonan-7-yl}methyl)piperidin-1-yl]-1,2-oxazol-5-yl}-3-methylbutanoyl]-4-hydroxy-N-[(1S)-1-[4-(4-methyl-1,3-thiazol-5-yl)phenyl]ethyl]pyrrolidine-2-carboxamide] | < 2.5 nM | > 75%
4 | Cc1ncsc1-c1ccc([C@H](C)NC(=O)[C@@H]2C[C@@H](O)CN2C(=O)[C@@H](c2cc(N3CCC(CN4CCC5(CC4)CC(N4CCO[C@H](C(C)(C)N6C7CCC6CN(c6cc(-c8ccccc8O)nnc6N)C7)C4)C5)CC3)no2)C(C)C)cc1 [Compound 94, (2S,4R)-1-[(2R)-2-{3-[4-({2-[(2S)-2-(2-{3-[3-amino-6-(2-hydroxyphenyl)pyridazin-4-yl]-3,8-diazabicyclo[3.2.1]octan-8-yl}propan-2-yl)morpholin-4-yl]-7-azaspiro[3.5]nonan-7-yl}methyl)piperidin-1-yl]-1,2-oxazol-5-yl}-3-methylbutanoyl]-4-hydroxy-N-[(1S)-1-[4-(4-methyl-1,3-thiazol-5-yl)phenyl]ethyl]pyrrolidine-2-carboxamide] | 2.5 to 10 nM | > 75%
5 | CC(C)[C@@H](C(=O)N1C[C@H](O)C[C@H]1C(=O)N[C@@H](C)c1ccc(C#N)cc1)c1cc(N2CCC(CN3CC[C@@H](Oc4cc(N5C6CCC5CN(c5cc(-c7ccccc7O)nnc5N)C6)ccn4)C(F)(F)C3)CC2)no1 [Compound 147, (2S,4R)-1-[(2R)-2-[3-(4-{[(4R)-4-[(4-{3-[3-amino-6-(2-hydroxyphenyl)pyridazin-4-yl]-3,8-diazabicyclo[3.2.1]octan-8-yl}pyridin-2-yl)oxy]-3,3-difluoropiperidin-1-yl]methyl}piperidin-1-yl)-1,2-oxazol-5-yl]-3-methylbutanoyl]-N-[(1S)-1-(4-cyanophenyl)ethyl]-4-hydroxypyrrolidine-2-carboxamide] | 2.5 to 10 nM | > 75%
6 | Cc1nccn1-c1ccc([C@H](C)NC(=O)[C@@H]2C[C@@H](O)CN2C(=O)[C@H](c2cc(N3CCC(CN4CCC(O[C@H]5C[C@H](N6CCC(C(C)n7cc(C#Cc8cc(-c9ccccc9O)nnc8N)cn7)CC6)C5)CC4)CC3)no2)C(C)C)cc1 (stereo partly drawn) [Compound 90, (2S,4R)-4-hydroxy-N-[(1S)-1-[4-(2-methyl-1H-imidazol-1-yl)phenyl]ethyl]-1-[(2S)-3-methyl-2-{3-[4-({4-[(1r,3r)-3-{4-[1-(4-{2-[3-amino-6-(2-hydroxyphenyl)pyridazin-4-yl]ethynyl}-1H-pyrazol-1-yl)ethyl]piperidin-1-yl}cyclobutoxy]piperidin-1-yl}methyl)piperidin-1-yl]-1,2-oxazol-5-yl}butanoyl]pyrrolidine-2-carboxamide] | ≥ 30 nM | –
7 | Cc1ncsc1-c1ccc([C@H](C)NC(=O)[C@@H]2C[C@@H](O)CN2C(=O)[C@H](c2cc(N3CCC(CN4CCC(O[C@H]5C[C@H](Oc6cc(N7C8CCC7CN(c7cc(-c9ccccc9O)nnc7N)C8)ccn6)C5)CC4)CC3)no2)C(C)C)c(N)c1 [Compound 5, (2S,4R)-N-[(1S)-1-[2-amino-4-(4-methyl-1,3-thiazol-5-yl)phenyl]ethyl]-4-hydroxy-1-[(2S)-3-methyl-2-{3-[4-({4-[(1r,3r)-3-[(4-{3-[3-amino-6-(2-hydroxyphenyl)pyridazin-4-yl]-3,8-diazabicyclo[3.2.1]octan-8-yl}pyridin-2-yl)oxy]cyclobutoxy]piperidin-1-yl}methyl)piperidin-1-yl]-1,2-oxazol-5-yl}butanoyl]pyrrolidine-2-carboxamide] | ≥ 30 nM | –
8 | Cc1ncsc1-c1ccc([C@H](C)NC(=O)[C@@H]2C[C@@H](O)CN2C(=O)[C@H](c2cc(OCCOC(=O)N3CCC(O[C@H]4C[C@H](Oc5cc(N6C7CCC6CN(c6cc(-c8ccccc8O)nnc6N)C7)ccn5)C4)CC3)no2)C(C)C)cc1 [Compound 134, 2-({5-[(2S)-1-[(2S,4R)-4-hydroxy-2-{[(1S)-1-[4-(4-methyl-1,3-thiazol-5-yl)phenyl]ethyl]carbamoyl}pyrrolidin-1-yl]-3-methyl-1-oxobutan-2-yl]-1,2-oxazol-3-yl}oxy)ethyl 4-[(1r,3r)-3-[(4-{3-[3-amino-6-(2-hydroxyphenyl)pyridazin-4-yl]-3,8-diazabicyclo[3.2.1]octan-8-yl}pyridin-2-yl)oxy]cyclobutoxy]piperidine-1-carboxylate] | ≥ 30 nM | –
9 | Cc1ncsc1-c1ccc([C@H](C)NC(=O)[C@@H]2C[C@@H](O)CN2C(=O)[C@@H](c2cc(N3CCC(CN4CCC(O[C@H]5C[C@H](N6CC(F)(F)OC7(CCN(c8cc(-c9ccccc9O)nnc8N)CC7)C6)C5)CC4)CC3)no2)C(C)C)cc1 [Compound 55, (2S,4R)-4-hydroxy-N-[(1S)-1-[4-(4-methyl-1,3-thiazol-5-yl)phenyl]ethyl]-1-[(2R)-3-methyl-2-{3-[4-({4-[(1r,3r)-3-{9-[3-amino-6-(2-hydroxyphenyl)pyridazin-4-yl]-2,2-difluoro-1-oxa-4,9-diazaspiro[5.5]undecan-4-yl}cyclobutoxy]piperidin-1-yl}methyl)piperidin-1-yl]-1,2-oxazol-5-yl}butanoyl]pyrrolidine-2-carboxamide] | < 2.5 nM | > 75%
10 | CC(C)[C@@H](C(=O)N1C[C@H](O)C[C@H]1C(=O)N[C@@H](C)c1ccc(C#N)cc1)c1cc(N2CCC(OCCN3CCC(Oc4cc(N5CCN(c6cc(-c7ccccc7O)nnc6N)CC5)ccn4)CC3)CC2)no1 [Compound 155, (2S,4R)-1-[(2R)-2-{3-[4-(2-{4-[(4-{4-[3-amino-6-(2-hydroxyphenyl)pyridazin-4-yl]piperazin-1-yl}pyridin-2-yl)oxy]piperidin-1-yl}ethoxy)piperidin-1-yl]-1,2-oxazol-5-yl}-3-methylbutanoyl]-N-[(1S)-1-(4-cyanophenyl)ethyl]-4-hydroxypyrrolidine-2-carboxamide] | 10 to 30 nM | > 75%
11 | CC(C)[C@@H](C(=O)N1C[C@H](O)C[C@H]1C(=O)N[C@@H](C)c1ccc(-c2c(F)cnn2C)cc1)c1cc(N2CCC(CN3CCC(O[C@H]4C[C@H](Oc5cc(N6CCN(c7cc(-c8ccccc8O)nnc7N)CC6)ccn5)C4)CC3)CC2)no1 [Compound 40, (2S,4R)-N-[(1S)-1-[4-(4-fluoro-1-methyl-1H-pyrazol-5-yl)phenyl]ethyl]-4-hydroxy-1-[(2R)-3-methyl-2-{3-[4-({4-[(1r,3r)-3-[(4-{4-[3-amino-6-(2-hydroxyphenyl)pyridazin-4-yl]piperazin-1-yl}pyridin-2-yl)oxy]cyclobutoxy]piperidin-1-yl}methyl)piperidin-1-yl]-1,2-oxazol-5-yl}butanoyl]pyrrolidine-2-carboxamide] | < 2.5 nM | > 75%
12 | Cc1ncsc1-c1ccc([C@H](C)NC(=O)[C@@H]2C[C@@H](O)CN2C(=O)[C@@H](c2cc(OCCN3CCN(CCOc4cc(N5C6CCC5CN(c5cc(-c7cc(F)ccc7O)nnc5N)C6)ccn4)[C@H](C)C3)no2)C(C)C)cc1 [Compound 148, (2S,4R)-1-[(2R)-2-(3-{2-[(3R)-4-{2-[(4-{3-[3-amino-6-(5-fluoro-2-hydroxyphenyl)pyridazin-4-yl]-3,8-diazabicyclo[3.2.1]octan-8-yl}pyridin-2-yl)oxy]ethyl}-3-methylpiperazin-1-yl]ethoxy}-1,2-oxazol-5-yl)-3-methylbutanoyl]-4-hydroxy-N-[(1S)-1-[4-(4-methyl-1,3-thiazol-5-yl)phenyl]ethyl]pyrrolidine-2-carboxamide] | < 2.5 nM | > 75%
13 | CC(C)[C@@H](C(=O)N1C[C@H](O)C[C@H]1C(=O)N[C@@H](C)c1ccc(-c2ccnn2C)cc1)c1cc(N2CCC(CN3CCC(Oc4cc(N5CCN(c6cc(-c7ccccc7O)nnc6N)CC5)ccn4)CC3)CC2)no1 [Compound 41, (2S,4R)-1-[(2R)-2-{3-[4-({4-[(4-{4-[3-amino-6-(2-hydroxyphenyl)pyridazin-4-yl]piperazin-1-yl}pyridin-2-yl)oxy]piperidin-1-yl}methyl)piperidin-1-yl]-1,2-oxazol-5-yl}-3-methylbutanoyl]-4-hydroxy-N-[(1S)-1-[4-(1-methyl-1H-pyrazol-5-yl)phenyl]ethyl]pyrrolidine-2-carboxamide] | < 2.5 nM | > 75%
